Experimental findings from ChEMBL document CHEMBL2010691, “Discovery of loperamide as an antagonist of angiopoietin1 and angiopoietin2 by virtual screening” (Bioorg Med Chem Lett, 2012) are described below.

In general, Kd refers to the constant that tells how readily two partners part at equilibrium.

Calls of active or inactive are those of the source. No cut-off for these calls is given here.

Assay [1] addresses T1, Angiopoietin-1 receptor (Homo sapiens, UniProt Q02763). In words: Binding affinity to human recombinant Tie2 by SPR assay. (Surface plasmon resonance follows binding to a sensor surface in real time, without labels.)
The target of assay [2] is T1, Angiopoietin-1 receptor. In words: Displacement of angiopoietin 1 from human recombinant Tie2 at 50 to 100 uM.
Assay [3] addresses T1, Angiopoietin-1 receptor. In words: Displacement of angiopoietin 1 from human recombinant Tie2 at 25 to 100 uM.
The target of assay [4] is T1, Angiopoietin-1 receptor. Briefly: Displacement of angiopoietin 2 from human recombinant Tie2 at 25 to 100 uM.

T1 sequence (Q02763 whole entry): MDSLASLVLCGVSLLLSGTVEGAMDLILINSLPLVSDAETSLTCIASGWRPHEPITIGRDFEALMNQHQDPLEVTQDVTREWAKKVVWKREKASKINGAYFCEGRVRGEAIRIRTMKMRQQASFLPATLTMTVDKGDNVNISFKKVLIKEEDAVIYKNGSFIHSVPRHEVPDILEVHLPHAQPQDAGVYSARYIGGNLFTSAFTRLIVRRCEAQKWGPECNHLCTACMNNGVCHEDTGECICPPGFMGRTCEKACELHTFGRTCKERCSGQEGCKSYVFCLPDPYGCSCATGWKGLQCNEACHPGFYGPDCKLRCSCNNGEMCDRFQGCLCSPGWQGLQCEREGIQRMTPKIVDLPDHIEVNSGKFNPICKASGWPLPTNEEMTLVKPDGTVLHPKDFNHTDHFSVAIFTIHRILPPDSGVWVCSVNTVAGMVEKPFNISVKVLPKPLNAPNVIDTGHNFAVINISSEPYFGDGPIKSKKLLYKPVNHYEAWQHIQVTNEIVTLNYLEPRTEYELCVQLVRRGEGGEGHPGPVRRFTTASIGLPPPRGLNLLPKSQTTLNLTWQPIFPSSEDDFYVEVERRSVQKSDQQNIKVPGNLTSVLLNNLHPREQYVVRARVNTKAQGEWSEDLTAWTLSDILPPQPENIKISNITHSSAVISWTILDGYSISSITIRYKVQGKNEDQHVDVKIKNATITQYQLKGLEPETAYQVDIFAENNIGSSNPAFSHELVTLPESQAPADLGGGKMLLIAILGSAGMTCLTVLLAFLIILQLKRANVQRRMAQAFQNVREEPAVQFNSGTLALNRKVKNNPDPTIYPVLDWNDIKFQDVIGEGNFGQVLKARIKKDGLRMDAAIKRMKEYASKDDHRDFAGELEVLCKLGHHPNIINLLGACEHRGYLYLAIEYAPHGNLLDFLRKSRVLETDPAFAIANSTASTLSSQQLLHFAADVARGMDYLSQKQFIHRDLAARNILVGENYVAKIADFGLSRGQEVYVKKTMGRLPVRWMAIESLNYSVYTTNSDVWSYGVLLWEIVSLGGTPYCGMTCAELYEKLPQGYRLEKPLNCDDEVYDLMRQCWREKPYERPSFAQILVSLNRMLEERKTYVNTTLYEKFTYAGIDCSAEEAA

On to `O=C(N[C@H](Cc1ccccc1F)C(=O)O)OCC1c2ccccc2-c2ccccc21`, for which the Kd at Angiopoietin-1 receptor [1] was 120 µM. Further, the result on Angiopoietin-1 receptor [2] was Active.
As for `CC1(C)S[C@@H]2[C@H](NC(=O)[C@H](N)c3ccccc3)C(=O)N2[C@H]1C(=O)O` [AMPICILLIN], the Kd on Angiopoietin-1 receptor [1] was found to be 82 µM. For the same compound, the result on Angiopoietin-1 receptor [2] was Active.
For `O=C(O)COCCN1CCN(C(c2ccccc2)c2ccc(Cl)cc2)CC1` (centres undefined) [CETIRIZINE] the same measures were 90 µM and “Active”.
In the case of `CN(C)C(=O)C(CCN1CCC(O)(c2ccc(Cl)cc2)CC1)(c1ccccc1)c1ccccc1` [LOPERAMIDE], the Kd on Angiopoietin-1 receptor [1] was found to be 5.9 µM. Besides, the outcome on Angiopoietin-1 receptor [3] and on Angiopoietin-1 receptor [4] was Active.
